Laboratory results reported in patent US12544375B2, “Small molecule therapeutic for parkinson's disease paired with a biomarker of therapeutic activity” (The Board of Trustees of the Leland Stanford Junior …, priority 2019, dated 2026).

How the values were obtained:
[1] = test system: fibroblasts; assay: Cytotoxicity: mitochondrial matrix and cytosolic proteins in fibroblasts with CCCP; type: cell-based, human; conditions: combined with CCCP treatment for 6 hrs
Procedure: FIG. 2A-FIG. 2F. Miro1 Reducer Eliminates the Miro1 Defect in PD Fibroblasts. (FIG. 2A) Chemical properties of Miro1 Reducer. (FIG. 2B) Wild-type flies (w^1118) were fed with DMSO alone (0 μM Miro1 Reducer) or Miro1 Reducer in DMSO at 250 μM for 7 days, and lysed and blotted as indicated. The band intensities are normalized to those of Tubulin from the same blots. n=4. (FIG. 2C-FIG. 2E) Fibroblasts were treated, lysed, and blotted as indicated. (FIG. 2C) Band intensities are normalized to those of GAPDH from the same blots and compared to “Healthy-1, no treatment” except otherwise indicated. n=4. (FIG. 2D) Band intensities are normalized to those of ATP5β from the same blots and expressed as a percentage of the mean of “0 μM Miro1 Reducer with CCCP”. Mean±S.E.M is shown. n=3. (FIG. 2E) Band intensities are normalized to those of GAPDH from the same blots and compared to “Healthy-1, no CCCP, no MG132” except otherwise indicated. n=4. (FIG. 2F) Healthy-1 and PD-2 fibroblasts were transfected as indicated, and immunostained with anti-Myc (Miro1, green) and stained with Dapi (blue). The Miro1 intensity is normalized to that of mito-dsRed from the same cell and quantified across 37-62 cells from 5 fields each transfection, 3 independent transfections. Scale bars: 50 μm. For (FIG. 2C-FIG. 2F), both CCCP and Miro1 Reducer were dissolved in DMSO. […]

[2] = test system: Miro1 mRNA; assay: Miro1 mRNA expression by qPCR in fibroblasts; type: cell-based, human
Procedure: FIG. 8. Related to FIG. 2-4. Miro1 Reducer in Human Cell and Fly Models. (A) Fibroblasts from Healthy-1 and PD-2 were treated, lysed, and blotted as indicated. Band intensities are normalized to those of GAPDH from the same blots and compared to “Healthy-1, no treatment”. n=4 independent experiments. (B) Fibroblasts from PD-2 were treated and immunostained as indicated. The intensity was quantified for each cell across 264-320 cells from 3 independent experiments, compared to “no treatment”. (C) Fibroblasts were treated, immunoprecipitated (IPed) with anti-Miro1, and blotted as indicated. Similar results were observed twice. […] The GTPase activity of the IPed Miro1 protein was measured as described in Method. […] The MitoSox intensity was quantified for each cell across 106-161 cells from 3 coverslips. […] The TMRM intensity was measured for each cell across 48-60 cells from 3 independent experiments, and expressed as a fraction of the mean of “Healthy-1, no treatment”. […] The movement (the intensity of non-yellow) was quantified for each cell as described in (Tsai et al., 2014) across 22-31 cells from 3 transfections. […] (1) Left: The percentage of TH-positive iPSC-derived neurons out of total cells (Dapi-positive) is calculated after immunocytochemistry under 20× as described in FIG. 3. […]
PCR. […] Concentrations of total RNA were measured using a Nano Drop. […]

[3] = test system: Mitofusin (Marf); assay: Flies fed compound, Mitofusin (Marf) Western blot; type: in vivo, fruit flies; conditions: wild-type flies fed 250 μM for 7 days
Procedure: FIG. 2A-FIG. 2F. Miro1 Reducer Eliminates the Miro1 Defect in PD Fibroblasts. (FIG. 2A) Chemical properties of Miro1 Reducer. (FIG. 2B) Wild-type flies (w^1118) were fed with DMSO alone (0 μM Miro1 Reducer) or Miro1 Reducer in DMSO at 250 μM for 7 days, and lysed and blotted as indicated. The band intensities are normalized to those of Tubulin from the same blots. n=4. (FIG. 2C-FIG. 2E) Fibroblasts were treated, lysed, and blotted as indicated. (FIG. 2C) Band intensities are normalized to those of GAPDH from the same blots and compared to “Healthy-1, no treatment” except otherwise indicated. n=4. (FIG. 2D) Band intensities are normalized to those of ATP5β from the same blots and expressed as a percentage of the mean of “0 μM Miro1 Reducer with CCCP”. Mean±S.E.M is shown. n=3. (FIG. 2E) Band intensities are normalized to those of GAPDH from the same blots and compared to “Healthy-1, no CCCP, no MG132” except otherwise indicated. n=4. […] The Miro1 intensity is normalized to that of mito-dsRed from the same cell and quantified across 37-62 cells from 5 fields each transfection, 3 independent transfections. […]
We assessed the binding ability of 6,835,320 commercialized small molecules to one of the two atypical Rho GTPase domains of Miro1 (amino acids 411-592) (FIG. 6C) by a customized virtual screen using the artificial intelligence (AI) technology. […]

O=C(Nc1ccc(Nc2cc(-n3ccnc3)ncn2)cc1)Nc1cccc(F)c1 [Miro1 Reducer]
concentrations impacting multiple mitochondrial matrix and cytosolic proteins, indicating cytotoxicity [1]: > 25 µM | Miro1 mRNA expression (qPCR) [2]: nor did it change Miro1 mRNA expression | effect on OMM GTPase Mitofusin (Marf) [3]: did not significantly affect
